Reference: patent US9889150B2, “Agents for the prevention and/or treatment of central nervous system damage” (The University Of Liverpool, priority 2012, dated 2018)
“And” between values parts separate entries of the source, which are not always exact repeats. Identical values can stand only once. “Also recorded” adds a separate entry of the source. Like-named read-outs stand apart in the source and are kept apart here.

What was measured:
Factor Xa (Homo sapiens) [1] = test system: T1, Factor Xa (Homo sapiens); assay: Anti-factor Xa activity against PIMH standard, Coatest Heparin test kit; type: biochemical; settings: compared with standard heparin (HEP1)
T1 construct: purchased Chromogenix
Description: Anti Factor Xa activity can be measured against a PIMH standard of known activity (Sigma, UK) using a diagnostic grade Coatest Heparin test kit (Chromogenix, MA), adapted to a 96-well plate format, reading A405 (Polarstar plate reader (BMG LabTechnologies, U.K.))^17.
The anti-factor Xa activity was measured against a PIMH standard of known activity using a diagnostic grade Coatest Heparin test kit (Chromogenix, MA), adapted to a 96-well plate format, reading A405.

OECs and astrocytes [2] = assay: OEC:astrocyte confrontation assay (boundary formation); type: cell-based, Sprague-Dawley rat; design: key to graded score of boundary formation: mingling (−); partial boundary (+/−); complete boundary (++); settings: 2 days of treatment; for boundary formation between OECs and astrocytes: modified heparins 10 μg/ml
Description: (§1) All primary neural cultures were generated from Sprague-Dawley rat pups of either sex. As described previously^10,37, purified type 1 astrocytes were prepared by digesting cortices (dissected from 1-day old Sprague Dawley (SD) rats) in 1.33% (w/v) collagenase (Sigma-Aldrich, Gillingham, UK), seeding (˜2×10^7 cells per 75 cm^2 flask) and culturing the cells in poly-L-lysine (PLL, 13.3 μg/ml, Sigma-Aldrich, Gillingham, UK) coated 75 cm2 flasks for 10-12 days. The cells were maintained in DMEM (Invitrogen, Paisley, Scotland) supplemented with 10% (v/v) foetal bovine serum (FBS) (Sigma-Aldrich, Gillingham, UK) and L-glutamine (2 mM, Sigma-Aldrich, Gillingham, UK) (DMEM-FBS). Confluent flasks were shaken on a rotary platform overnight at 37° C. to remove contaminating oligodendrocyte precursor cells. The remaining cells were 85-95% type 1 astrocytes as identified by labelling for glial fibrillary acidic protein (GFAP), an astrocyte cell specific marker.
OECs were isolated from the olfactory bulb of 7 day old SD rat pups and purified using magnetic nanoparticles (STEMCELL Technologies, UK) pre-bound with the p75^NTR antibody (mouse IgG1, Abcam, Cambridge, UK)^30. The cells were grown in low glucose DMEM with 5% (v/v) FBS and 2 mM L-glutamine and further supplemented with DMEM-BS (Bottenstein, 1979), FGF2 (25 ng/ml, Peprotech, London UK), heregulin β-1 (50 ng/ml, R&D Systems, Oxon, UK), forskolin (5×10^-7 M Sigma-Aldrich, Gillingham, UK) and astrocyte conditioned media (ACM) (1:5, fresh serum-free media taken after incubation with a confluent astrocyte monolayer for 48 h)^18, 37.
Confrontation assays were performed as described by Wilby et al. (1999) and Lakatos et al. (2000) with some modifications^10,48. Briefly, 70 μl containing 10,000 OECs or SCs were seeded into one well of a silicon Ibidi culture insert on a PLL-coated glass coverslip (Ibidi GmbH, Munich, Germany). Into the opposing, parallel well, 10,000 astrocytes were seeded. Cells were allowed to attach for 1 h before careful removal of the insert followed by a wash with DMEM-FBS to remove unattached cells. Cultures were maintained in DMEM-FBS and allowed to grow towards each other over a period of 5-7 days, allowing time for cells to make contact and interact^10. In some experiments, modified heparins or blocking antibodies were added to the cultures after the cells had contacted each other. Cultures were then immunolabelled using anti-GFAP for astrocytes (1:500; anti-rabbit (Dako, Ely, UK)) and anti-p75NTR for OECs and SCs (1:1; IgG1; hybridoma supernatant^49. Fluorescent images were captured using an Olympus BX51 fluorescent microscope and Image-Pro software. Using Adobe Photoshop Elements 7.0, a 300 μm line was drawn along the interface between astrocytes and either OECs or SCs. The numbers of OECs or SCs crossing the cell:cell boundary were counted and averaged over five randomly chosen fields. Experiments were repeated at least three times.
Modified heparins were produced semisynthetically by chemical modification (selective desulfation) of heparin as described in Example 1. These structurally distinct, model “HS-mimetic” polysaccharides^50 are useful tools for investigating structure-activity relationships of HS^15-17,31. Heparins were added to confrontation assays at 10 μg/ml at the stage when cells made contact (day 0) and treatment was repeated on day 2. Cultures were fixed and stained as described above on day 3. […]
Purified OECs were seeded at a density of 5000 cells/100 μl into one chamber of an Ibidi culture insert (Ibidi GmbH, Munich, Germany) sealed onto a PLL coated coverslip in a well of a 24-well plate. Cells were cultured in defined OEC medium for 24 h, after which, the medium was replaced with low serum (2% (v/v) FBS) OEC medium containing 1 μM siRNA. siRNA sequences were obtained from Dharmacon/Thermo Scientific (Sulf 1: E-093746-00-0005; Sulf2: E-093673-00-0005; non-targeting: D-001910-01-05; Thermo Fisher Scientific Inc, IL, USA). […]

Factor IIa = molecular target: T2, Factor IIa (Homo sapiens, UniProt P00734+P01008); assay: Factor IIa colorimetric substrate assay with antithrombin III; type: biochemical; settings: tested up to 100 ug/ml
T2 construct: Factor IIa (Sigma, 15 mU/ml final concentration); purchased Sigma (Factor IIa); American Diagnostica (antithrombin III)
Description: (§2) Factor Xa and Factor II activity was measured using a colorimetric substrate assay as previously described^17. Briefly, in a 96 well ELISA plate, antithrombin III (American Diagnostica, 30 mIU/ml final concentration) was incubated with heparin or polysaccharide fractions in 0.9% NaCl at 37° C. for 2 minutes. Factor IIa (Sigma, 15 mU/ml final concentration) or Factor Xa (Thermo Scientific, 15 mU/ml final concentration) was added and the samples incubated for a further 1 minute at 37° C. Factor Xa Chromogenic substrate (Sigma, 240 uM final concentration) was added to the samples and incubated for 10 minutes at 37° C. The reaction was stopped with glacial acetic acid (Sigma, 25% final concentration). Colour change of the substrate was measured at 405 nm.
(§3) For all assays, heparins and polysaccharides were tested up to 100 ug/ml.

Factor Xa (Homo sapiens) [3] = molecular target: T1, Factor Xa (Homo sapiens); assay: Factor Xa colorimetric substrate assay with antithrombin III; type: biochemical; settings: tested up to 100 ug/ml
Description: as §2, §3

normal human plasma [4] = assay: PT assay; type: biochemical; settings: tested up to 100 ug/ml
Description: (§4) APTT and PT assays were performed using a Axis Shield Thrombotrack 1 instrument using normal human plasma, Pathrombin SL reagent and Thromborel S (all from Axis Shield) reagents according to manufacturers instructions.
as §3

normal human plasma [5] = assay: APTT assay; type: biochemical; settings: tested up to 100 ug/ml
Description: as §4, §3

SCs and astrocytes = assay: SC:astrocyte confrontation assay (boundary formation); type: cell-based, Sprague-Dawley rat; settings: modified heparins 10 μg/ml, 2 days of treatment
Description: as §1
SCs were purified using a modification of the method described by Brockes and colleagues^20. This modification involved treating the cultures with cytosine arabinoside (AraC, 10^−5 M, Sigma-Aldrich, Gillingham, UK), followed by incubation with anti-Thy1.1 antibody (1:1 supernatant, Sigma-Aldrich, Gillingham, UK) and rabbit complement (1:6, Harlan Laboratories Ltd., UK) to reduce contamination by fibroblasts^10. […]
Confrontation assays were performed as described by Wilby et al. (1999) and Lakatos et al. (2000) with some modifications^10,48. […] Cultures were then immunolabelled using anti-GFAP for astrocytes (1:500; anti-rabbit (Dako, Ely, UK)) and anti-p75NTR for OECs and SCs (1:1; IgG1; hybridoma supernatant^49. Fluorescent images were captured using an Olympus BX51 fluorescent microscope and Image-Pro software. Using Adobe Photoshop Elements 7.0, a 300 μm line was drawn along the interface between astrocytes and either OECs or SCs. The numbers of OECs or SCs crossing the cell:cell boundary were counted and averaged over five randomly chosen fields. Experiments were repeated at least three times. […]

OECs and astrocytes [6] = settings: previous work; cited from earlier work
[7] = Celsus Labs lot PH-42800; cited from earlier work

T1 sequence (P01008 33-464): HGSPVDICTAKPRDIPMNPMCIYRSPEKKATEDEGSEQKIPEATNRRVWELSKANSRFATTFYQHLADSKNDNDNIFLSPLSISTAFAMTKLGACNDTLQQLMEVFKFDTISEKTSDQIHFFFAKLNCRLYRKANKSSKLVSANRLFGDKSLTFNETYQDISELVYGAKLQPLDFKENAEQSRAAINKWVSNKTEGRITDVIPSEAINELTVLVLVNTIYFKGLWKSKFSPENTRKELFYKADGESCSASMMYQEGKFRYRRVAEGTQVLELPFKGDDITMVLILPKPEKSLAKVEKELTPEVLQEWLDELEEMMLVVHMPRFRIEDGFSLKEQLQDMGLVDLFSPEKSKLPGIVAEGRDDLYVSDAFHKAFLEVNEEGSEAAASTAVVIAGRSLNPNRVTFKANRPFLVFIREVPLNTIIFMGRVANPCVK

Row | Anticoagulant activity (anti-Xa activity) (Factor Xa (Homo sapiens) [1]) | Substance | IC50 Factor IIa (Factor IIa) | IC50 Factor Xa (Factor Xa (Homo sapiens) [3]) | IC50 PT (normal human plasma [4]) | IC50 APTT (normal human plasma [5]) | other results
1 | 0.5% | 6-O-desulphated heparin [HEP4] | – | – | – | – | boundary formation between OECs and astrocytes (OECs and astrocytes [2]; listed as Hep 4): lower boundary forming activity; boundary formation between OECs and astrocytes (OECs and astrocytes [2]; listed as Hep4): induced boundaries between OECs and astrocytes
2 | 0.03% | 6-O-desulphated, 2-O-desulphated heparin [HEP7] | NI (No inhibition of coagulation up to 100 ug/ml of compound) | NI (No inhibition of coagulation up to 100 ug/ml of compound) | NI (No inhibition of coagulation up to 100 ug/ml of compound) | NI (No inhibition of coagulation up to 100 ug/ml of compound) | boundary formation between OECs and astrocytes (OECs and astrocytes [2]; listed as Hep 7): do not promote boundary formation; boundary formation between OECs and astrocytes (OECs and astrocytes [2]; listed as Hep7): did not; SCs mingling with astrocytes / boundary formation (SCs and astrocytes; listed as Hep 7): increased number of SCs mingling with astrocytes; also recorded: significantly increased cell mingling
3 | 0.03% | 6-O-desulphated, 2-O-desulphated, N-acetylated heparin [HEP8] | NI (No inhibition of coagulation up to 100 ug/ml of compound) | NI (No inhibition of coagulation up to 100 ug/ml of compound) | NI (No inhibition of coagulation up to 100 ug/ml of compound) | NI (No inhibition of coagulation up to 100 ug/ml of compound) | boundary formation between OECs and astrocytes (OECs and astrocytes [2]; listed as Hep 8): do not promote boundary formation; boundary formation between OECs and astrocytes (OECs and astrocytes [2]; listed as Hep8): did not; SCs mingling with astrocytes / boundary formation (SCs and astrocytes; listed as Hep 8): increased number of SCs mingling with astrocytes; also recorded: significantly increased cell mingling
4 | 0.03% | 6-O-desulphated, N-acetylated heparin [HEP6] | NI (No inhibition of coagulation up to 100 ug/ml of compound) | NI (No inhibition of coagulation up to 100 ug/ml of compound) | NI (No inhibition of coagulation up to 100 ug/ml of compound) | NI (No inhibition of coagulation up to 100 ug/ml of compound) | boundary formation between OECs and astrocytes (OECs and astrocytes [2]; listed as Hep 6): do not promote boundary formation; boundary formation between OECs and astrocytes (OECs and astrocytes [2]; listed as Hep6): did not; SCs mingling with astrocytes / boundary formation (SCs and astrocytes; listed as Hep 6): increased number of SCs mingling with astrocytes; also recorded: significantly increased cell mingling
5 | – | Heparin [reference compound] | 1.0 µg/mL and 1.0326 µg/mL | 0.9 µg/mL and 0.9295 µg/mL | 41.4 µg/mL and 41.4005 µg/mL | 1.2 µg/mL and 1.2461 µg/mL | boundary formation between OECs and astrocytes (OECs and astrocytes [6]): induce a boundary between OECs and astrocytes; graded score of boundary formation (OECs and astrocytes [2]; 10 μg/ml): ++
6 | 0.4% | Ido 2-de-O-sulphated heparin [HEP3] | – | – | – | – | boundary formation between OECs and astrocytes (OECs and astrocytes [2]; listed as Hep 3): lower boundary forming activity; boundary formation between OECs and astrocytes (OECs and astrocytes [2]; listed as Hep3): induced boundaries between OECs and astrocytes
7 | 0.03% | Ido 2-de-O-sulphated, N-acetylated heparin [HEP5] | NI (No inhibition of coagulation up to 100 ug/ml of compound) | NI (No inhibition of coagulation up to 100 ug/ml of compound) | NI (No inhibition of coagulation up to 100 ug/ml of compound) | NI (No inhibition of coagulation up to 100 ug/ml of compound) | boundary formation between OECs and astrocytes (OECs and astrocytes [2]): did not
8 | 0.03% | N-acetyl heparin [HEP2] | – | – | – | – | boundary formation between OECs and astrocytes (OECs and astrocytes [2]; listed as Hep 2): induced significant boundary formation; boundary formation between OECs and astrocytes (OECs and astrocytes [2]; listed as Hep2): induced boundaries between OECs and astrocytes
9 | 100% | PIMH [HEP1, reference compound] | – | – | – | – | anticoagulant activity [7]: 201 IU/mg; boundary formation between OECs and astrocytes (OECs and astrocytes [2]): induced boundaries between OECs and astrocytes; also recorded: induced the strongest boundaries
10 | 35.0% | Per-sulphated heparin [HEP9] | – | – | – | – | boundary formation between OECs and astrocytes (OECs and astrocytes [2]; listed as Hep 9): induced the strongest boundaries; boundary formation between OECs and astrocytes (OECs and astrocytes [2]; listed as Hep9): induced boundaries between OECs and astrocytes
